Experimental data taken from patent US20220409510A1, “Polypeptides And Methods For Improving Skin Conditions” (Interk Peptide Therapeutics Limited, priority 2018, published 2022).

Experiments:
[1] = system: 8-OHdG formation in the skin; assay: UV-induced oxidative stress (8-OHdG/8oxodG immunohistochemistry) in mouse skin; type: in vivo, Skh:hr1 hairless mice; conditions: topical immediately after 3 MED UVR; IK34720 20, 100 or 200 μg, Calcitriol 11.4 pmol/cm2; 3 h post-UVR; vs vehicle
Experimental: 8-hydroxy-2′-deoxyguanosine or 8-oxo-7,8-dihydro-2′-deoxyguanosine (8-OHdG/8-oxodG) is one of the predominant forms of free radical-induced in oxidative lesions with the concentrations of 8-OHdG within a cell being a measurement of oxidative stress. The role of the polypeptide IK34720 (SEQ ID NO: 3) in UV-induced oxidative stress was assessed using the following protocol.
Female Skh:hr1 hairless mice were exposed to solar simulated UV-irradiation (UVR) by exposure to one fluorescent UVB tube (Philips TL40W 12R/S, Eindhoven, The Netherlands) in combination with 6 UVA tubes (Hitachi 40W F40T 10/BL, Tokyo, Japan). The UVA and UVB irradiation was filtered through a 0.125 mm cellulose acetate sheet (Grafix Plastics, Cleveland, Ohio) as previously described (Dixon KM et al., Biochem Mol Biol, 2007, 103(3-5):451-6). […]
Biopsies were taken from UV-irradiated dorsal skin 3 h post-UVR and fixed in Histochoice fixative (Amresco, Solon Ohio) for 6 h. […] Sections were subjected to routine hematoxylin and eosin staining for visualization of sunburn cells at 40× magnification, and the number of sunburn cells per linear millimetre of skin section recorded.
Levels of 8-oxo-2′-deoxyguanosine (8oxodG) indicative of oxidative stress were detected by immunohistochemistry and image analysis (Dixon KM et al., Cancer Prey Res 2011, 4(9):1485-94) as set out below. […]

[2] = target: T1, Human rheumatoid synovial fibroblast MMP-1 (Homo sapiens, UniProt P03956); assay: MMP-1 activity in vitro (fluorogenic substrate); type: biochemical; conditions: 5, 10, 800 and 1000 μM; 8 nM activated enzyme; pH 7.2; FIG. 16
T1 construct: endogenous in cells; host or cells: human rheumatoid synovial fibroblasts (native proenzyme isolated from these cells)
T1 sequence (P03956 100-469): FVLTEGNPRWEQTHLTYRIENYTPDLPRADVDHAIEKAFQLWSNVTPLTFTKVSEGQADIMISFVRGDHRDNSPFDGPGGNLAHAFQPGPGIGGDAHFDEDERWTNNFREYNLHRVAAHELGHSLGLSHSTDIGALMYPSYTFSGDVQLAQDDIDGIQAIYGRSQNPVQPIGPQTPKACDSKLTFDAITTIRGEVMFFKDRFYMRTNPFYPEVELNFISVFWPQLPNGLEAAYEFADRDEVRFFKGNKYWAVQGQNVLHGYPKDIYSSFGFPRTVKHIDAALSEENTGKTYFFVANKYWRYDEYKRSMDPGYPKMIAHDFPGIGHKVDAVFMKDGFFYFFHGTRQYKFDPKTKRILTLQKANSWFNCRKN
Experimental: The effect of the polypeptide IK34720 (SEQ ID NO: 3) on MMP-1 activity was evaluated using the following protocol.
Human rheumatoid synovial fibroblast MMP-1 proenzyme, activated with APMA for 60 minutes at 37° C., was used as an active enzyme. The polypeptide IK34720 (SEQ ID NO: 3) at a concentration of 5 μM. 10 μM 800 μM and 1000 μM was pre-incubated with 8 nM activated enzyme in modified MOPS buffer pH 7.2 for 60 minutes at 37° C. The reaction was initiated by addition of […] Mca-Pro-Leu-Gly-Leu-Dap-Ala-Arg followed by a 2 hour incubation period. Determination of the amount of Mca-Pro-Leu-Gly formed was read spectrofluorimetrically at 340 nm/400 nm.

[3] = system: CPDs in human skin explants; assay: CPD formation in human skin explants after UV-irradiation; type: cell-based
Experimental: Human skin removed at elective surgery was cleaned, dissected and cut into pieces of approx. 5 mm×5 mm. Each piece was placed in a well of a 96 well plate, with individual plates prepared to assess the effects 3 hrs post treatment. All samples were performed in triplicate for each treatment. Skin was subjected to UV-radiation from solar-simulated UV source for 1.5 h (UVR), or non-irradiation (SHAM). Given that human skin is thicker than mouse skin, human skin explants were exposed to a radiation dose three times higher than that used for mouse skin, i.e., 20 J/cm2 versus 7 J/cm2, respectively, and the output spectrum of the laboratory solar simulator has previously been reported (Rybchyn MS et al, J Invest Dermatol. 2018 May; 138(5):1146-1156) and treated immediately after with a vehicle control, Calcitriol (1 nM) or the polypeptide IK34720 (SEQ ID NO: 3) at concentrations of 50 μM, 250 μM or 500 uM.
Samples harvested at 3 hrs were fixed, section, stained and quantified as described in Example 5.

Sequence: RSKAKNPLYRRRRRRRRR [IK34720, 18-residue polypeptide: … with a C-terminal polyarginine region of 8 arginines]
- 8-OHdG formation in the skin [1]: inhibits 8-OHdG formation
- MMP-1 activity [2]: inhibits MMP-1 activation in a dose dependent manner
- percentage of CPD positive cells ([3]; 500 μM, 3 hrs, two individuals, FIG. 13A and B): statistically significantly reduced
- cells having CPDs (stained cells) ([3]; 3 hrs post irradiation/treatment, Calcitriol 1 nM, IK34720 50, 250 or 500 uM, FIG. 12): fewer stained cells
